Patent publication US11260072B2, “MicroRNA-based methods and assays for osteocarcinoma” (3-D Matrix, Ltd., priority 2011, dated 2022)
Entries after “also recorded” stand apart in the source; their conditions may differ.

How the values were obtained:
[1] = assessment of toxicity in LNA-treated tumor-bearing mice; type: in vivo; conditions: during the observation period
Experimental: (§1) Monitoring tumor growth, lung metastasis, and toxicity with/without LAN-anti-miR-133a. For the assessment of tumorigenicity between CD133^high and CD133^low HOS-Luc cells, NOD/SCID mice were injected with D-luciferin (150 mg/kg, Promega) by intraperitoneal injection. Ten minutes later, photons from firefly luciferase were counted using the IVIS imaging system (Xenogen Corp.) according to the manufacturer's instructions. Each experimental condition included 5 animals per group and monitoring once a week. For the evaluation of LNA-anti-miR-133a administration into spontaneous lung metastasis of osteosarcoma model mice, individual mice were injected with 10 mg/kg of LNA-anti-miR-133a or saline via the tail vain. LNA were injected on following days 4, 11, 18, 25, 32 postinoculation of 143B-Luc cells. Each experimental condition included 10 animals per group. The development of subsequent lung metastasis was monitored once a week in vivo by the bioluminescent imaging described above for 5 weeks. All data were analyzed using LivingImage software (version 2.50, Xenogen). On day 36, the primary tumor and lung in 5 mice of each group were resected at necropsy for their weight, bioluminescent, and histological analyses. The blood examination, weight of whole body as well as heart, liver, and skeletal muscle, and histopathological examination were performed for the assessment of toxicity.

SGMS2 = SGMS2 mRNA in 143B-luc tumors of LNA-133a-treated mice; type: in vivo, human
Source text: (§2) RNA isolation and quantitative real-time RT-PCR of mRNAs and miRNAs. Total RNA was purified from cells and tumor tissues with an RNeasy Mini Kit and RNase-Free DNase Set (QIAGEN). For quantitative polymerase chain reaction (qPCR) of mRNAs, cDNA was synthesized using High-Capacity cDNA Reverse Transcription Kit (Applied Biosystems). For each qPCR reaction, equal amounts of cDNA were mixed with Platinum SYBER Green qPCR SuperMix (Invitrogen) and specific primers (Table 1). Gene expression levels were normalized by beta actin (ACTB) or glyceraldehyde 3-phosphate dehydrogenase (GAPDH). For qPCR of miRNAs, miRNA was converted to cDNA using the TaqMan MicroRNA Reverse Transcription Kit (Applied Biosystems). RNU6B small nuclear RNA was amplified as an internal control. qPCR was performed using each miRNA-specific probe included with the TaqMan MicroRNA Assay on a Real-Time PCR System 7300 and SDS software (Applied Biosystems).
Monitoring tumor growth, lung metastasis, and toxicity with/without LAN-anti-miR-133a. […] Ten minutes later, photons from firefly luciferase were counted using the IVIS imaging system (Xenogen Corp.) according to the manufacturer's instructions. […] The development of subsequent lung metastasis was monitored once a week in vivo by the bioluminescent imaging described above for 5 weeks. All data were analyzed using LivingImage software (version 2.50, Xenogen). […]

143B-luc = assay: spontaneous lung metastasis model of osteosarcoma (143B-luc implanted orthotopically into tibia); type: in vivo, athymic nude mice
Experimental: Tumor transplantation experiments. Animal experiments were performed in compliance with the guidelines of the Institute for Laboratory Animal Research, National Cancer Center Research Institute. Athymic nude mice or NOD/SCID mice (CLEA Japan) were purchased at 4 weeks of age and given at least 1 week to adapt to their new environment prior to tumor transplantation. On day 0, mice were anesthetized with 3% isoflurane and the right leg disinfected with 70% ethanol. Cells were aspirated into a 1 mL tuberculin syringe fitted with a 27-G needle. The needle was inserted through the cortex of the anterior tuberosity of the tibia with a rotating movement to avoid cortical fracture. Once the bone was traversed, the needle was inserted further to fracture the posterior cortex of the tibia. A 100 μL volume of solution containing freshly isolated CD133^high and CD133^low HOS-Luc (10^2, 10^3, 10^4, 10^5 cells per site) or 143B-Luc (1.5×10^6) was injected while slowly moving back the needle.
as §1
To extend the in vitro findings and to determine whether silencing of miR-133a could be an effective therapeutic option for osteosarcoma treatment, the effect of LNA-133a on a spontaneous lung metastasis model of osteosarcoma was examined. Experimentally, 1.5×10^6 cells of 143B transfected with firefly luciferase gene (143B-luc) were implanted orthotopically into the right proximal tibia of athymic nude mice. The implanted tumor growth and the presence of distant metastases were analyzed weekly for luciferase bioluminescence using an in vivo imaging system (IVIS). […] To assess the efficacy of the new treatment protocol, results were compared with three control groups (n=10 each): a saline control group, an LNA group, and a CDDP group. At 5 weeks, half the mice in each group were euthanized for further analysis; the remaining mice were monitored for survival.

CD133^high cells [2] = assay: cytotoxicity assay (drug sensitivity) after LNA transfection; type: cell-based, human; conditions: DOX 0.4 μM or CDDP 5 μM, 48 h, 24 h after transfection
Experimental: Cell proliferation and cytotoxity assay. Cell proliferation rates and cell viability as an indicator for the relative sensitivity of the cells to doxorubicin, cisplatin, and methotrexate were determined using TetraColor ONE Cell proliferation Assay System (Seikagaku) according to the manufacturer's instructions. […] Triplicate wells were used for each treatment group. Absorbance was measured at 450 nm with a reference wavelength at 650 nm on EnVision (Wallac). The relative number of viable cells was expressed as the percent of cell viability.
(§3) Transfection with synthetic miRNAs, LNAs, and siRNAs. Synthetic hsa-miRs (Pre-miR-hsa-miR-1, -10b, -133a, and negative control (NC; Applied Biosystems, Table 2) and locked nucleic acids (LNAs) (LNA-1, -10b, -133a, and negative control, Exiqon, Table 3) were transfected into each type of cells at 30 nM each (final concentration) using DharmaFECT 1(GE Healthcare). Synthetic siRNAs (Bonac corporation, Table 4) were transfected into each type of cells at 100 nM each (final concentration) using DharmaFECT 1 (GE Healthcare). After 24 hours of incubation, cells were treated with chemotherapeutic agents for cytotoxicity assay or reseeded into invasion chambers for invasion assay.

miR-133a [3] = assay: silencing of miR-133a in LNA-transfected CD133high cells (real-time RT-PCR); type: cell-based, human; conditions: CD133high SaOS2 and HOS cells, LNA 30 nM
Source text: as §2
(§4) Transfection with synthetic miRNAs, LNAs, and siRNAs. […]

miR-133a [4] = assay: miR-133a expression in 143B-luc tumors (qRT-PCR); type: in vivo, human; conditions: vs saline-treated mice
Source text: as §2, with “RNU6B small nuclear RNA was amplified as an internal control. qPCR was performed using each miRNA-specific probe included with the TaqMan MicroRNA Assay on a Real-Time PCR System 7300 and SDS software (Applied Biosystems).” left out
To extend the in vitro findings and to determine whether silencing of miR-133a could be an effective therapeutic option for osteosarcoma treatment, the effect of LNA-133a on a spontaneous lung metastasis model of osteosarcoma was examined. […] The implanted tumor growth and the presence of distant metastases were analyzed weekly for luciferase bioluminescence using an in vivo imaging system (IVIS). […] At 5 weeks, half the mice in each group were euthanized for further analysis; the remaining mice were monitored for survival.

CD133^high cells [5] = assay: apoptotic cell count (Hoechst staining) after LNA transfection; type: cell-based, human; conditions: compared to control CD133high cells; CDDP 5 μM, 48 h
CD133^high cells [6] = assay: qPCR of genes associated with stemness, drug resistance and metastasis after LNA transfection; type: cell-based, human; conditions: β-actin internal control
Source text: as §2, §4

[7] = system: CD133^high SaOS2 and HOS cells; assay: cell proliferation after LNA transfection; type: cell-based, human; conditions: day 4 after transfection
Experimental: Cell proliferation and cytotoxity assay. Cell proliferation rates and cell viability as an indicator for the relative sensitivity of the cells to doxorubicin, cisplatin, and methotrexate were determined using TetraColor ONE Cell proliferation Assay System (Seikagaku) according to the manufacturer's instructions. Cells growing in the logarithmic phase were seeded in 96-well plates (5×10^3/well), allowed to attach overnight, and then were treated with varying doses of doxorubicin (Sigma), cisplatin (Alexis), and methotrexate (Sigma) for 72 h. Triplicate wells were used for each treatment group. Absorbance was measured at 450 nm with a reference wavelength at 650 nm on EnVision (Wallac). The relative number of viable cells was expressed as the percent of cell viability.
as §4

[8] = system: CD133^high SaOS2 and HOS populations; assay: invasion assay after LNA transfection; type: cell-based, human
Experimental: Invasion assay. Invasion assays were performed by using 24-well BD BioCoat Invasion Chambers with Matrigel (Becton-Dickinson). 1×10^5 cells, suspended in 500 μL DMEM or RPMI 1640 medium without FBS, were added to the upper chamber, and DMEM or RPMI 1640 medium with 10% FBS was added to the lower chamber. After incubation for 24 h or 36 h, the cells on the upper surface of the filter were completely removed by wiping them with cotton swabs. The filters were fixed in methanol and stained with 1% toluidine blue in 1% sodium tetraborate (Sysmex). Filters were then mounted onto slides, and cells on lower surfaces were counted. Each assay was performed in triplicate.
as §3

LNA-133a: locked nucleic acid antisense to hsa-miR-133a-1, 5′-CAGCTGGTTGAAGGGGACCAA-3′ (Exiqon) (LNA-modified oligonucleotide from Exiqon, pattern not given here)
toxic effects on various tissue including heart, liver, and skeletal muscle [1]: minimal toxic effects
expression of mRNA for SGMS2 (SGMS2): increased expression
Luminescence of lung (mean) (143B-luc; IVIS bioluminescence): 1744
Lung metastasis (mice with metastasis / mice in group) (143B-luc; day 35): 7/10
Tumor weight (mean) (143B-luc; day 36, LNA-133a 10 mg kg-1 i.v., CDDP i.p.): 3.143 g
sensitivity to DOX and CDDP (cell viability) (CD133^high cells [2]): enhanced sensitivity to DOX and CDDP
efficacy for the silencing of miR-133a (miR-133a [3]): confirmed; also recorded: knock-down
expression of miR-133a of tumors (miR-133a [4]): reduced miR-133a levels; also recorded: decreased
apoptotic cell death rate (CD133^high cells [5]): significantly higher apoptotic cell death rate
expression of the molecules associated with CD133high phenotypes (CD133^high cells [6]): decreased
proliferation rate [7]: suppressed in proliferation rate to the same level of CD133^low cells transfected with LNA-NC
invasiveness [8]: decreased the invasiveness
